Key:
[1] = Lipophilicity, logD of compound at pH 7; settings: buffer
[2] = biological target: Neuronal acetylcholine receptor; alpha4/beta2 (Homo sapiens, UniProt P17787+P43681); test: Binding affinity to nACh alpha4beta2 receptor (unknown origin) assessed as inhibition constant; assay type: protein-complex assay
[3] = Lipophilicity, logP of the compound; settings: octanol/water
[4] = Dissociation constant, pKa of the compound; assay type: physicochemical
[5] = Drug distribution in rat brain assessed as maximum binding; assay type: ADME, tissue-based; settings: in vivo
[6] = Drug distribution in rat brain assessed as dissociation constant; assay type: ADME, tissue-based
[7] = Drug distribution in Sprague-Dawley rat liver at 1 mg/kg, iv measured at 10 mins in presence of ETO; assay type: ADME, organism-based; settings: in vivo
[8] = Stability in Sprague-Dawley rat plasma assessed as parent compound remaining measured after 30 mins; assay type: ADME, cell-free; settings: read-out: Stability
[9] = Stability in Sprague-Dawley rat plasma assessed as parent compound remaining measured after 10 mins; assay type: ADME, cell-free; settings: read-out: Stability
[10] = Drug distribution in Sprague-Dawley rat adrenal gland at 1 mg/kg, iv measured at 10 mins in presence of ETO; assay type: ADME, organism-based; settings: in vivo
[11] = Stability in Sprague-Dawley rat plasma assessed as parent compound remaining measured after 60 mins; assay type: ADME, cell-free; settings: read-out: Stability
[12] = biological target: T1, Alpha-2C adrenergic receptor (Homo sapiens, UniProt P18825); test: Binding affinity to alpha2C receptor (unknown origin)
T1 sequence (P18825 whole entry): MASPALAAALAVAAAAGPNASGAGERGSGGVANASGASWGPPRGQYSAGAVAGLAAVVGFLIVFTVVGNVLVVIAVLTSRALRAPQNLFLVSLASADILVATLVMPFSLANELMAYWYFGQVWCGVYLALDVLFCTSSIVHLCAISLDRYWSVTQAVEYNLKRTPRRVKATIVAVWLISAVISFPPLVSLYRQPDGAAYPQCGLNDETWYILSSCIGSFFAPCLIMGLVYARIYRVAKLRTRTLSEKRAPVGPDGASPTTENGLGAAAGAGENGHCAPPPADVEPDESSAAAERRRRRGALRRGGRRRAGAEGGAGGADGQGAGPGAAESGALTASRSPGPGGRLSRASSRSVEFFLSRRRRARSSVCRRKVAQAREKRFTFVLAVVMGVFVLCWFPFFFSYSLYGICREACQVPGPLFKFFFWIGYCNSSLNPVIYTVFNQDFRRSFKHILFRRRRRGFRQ

[13] = biological target: T2, Alpha-2B adrenergic receptor (Homo sapiens, UniProt P18089); test: Binding affinity to alpha2B receptor (unknown origin)
T2 sequence (P18089 whole entry): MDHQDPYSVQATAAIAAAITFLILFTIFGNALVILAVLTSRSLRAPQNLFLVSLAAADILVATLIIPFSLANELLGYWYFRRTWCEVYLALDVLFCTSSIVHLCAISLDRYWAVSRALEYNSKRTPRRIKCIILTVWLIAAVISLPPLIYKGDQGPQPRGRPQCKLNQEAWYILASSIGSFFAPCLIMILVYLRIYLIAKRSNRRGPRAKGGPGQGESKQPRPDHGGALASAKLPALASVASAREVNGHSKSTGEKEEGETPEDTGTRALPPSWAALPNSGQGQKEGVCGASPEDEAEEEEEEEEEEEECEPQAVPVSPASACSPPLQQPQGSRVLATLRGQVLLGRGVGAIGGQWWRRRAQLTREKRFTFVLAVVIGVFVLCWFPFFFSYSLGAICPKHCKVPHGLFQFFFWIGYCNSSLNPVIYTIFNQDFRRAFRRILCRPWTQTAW

[14] = biological target: T3, Alpha-2A adrenergic receptor (Homo sapiens, UniProt P08913); test: Binding affinity to alpha2A receptor (unknown origin)
T3 sequence (P08913 whole entry): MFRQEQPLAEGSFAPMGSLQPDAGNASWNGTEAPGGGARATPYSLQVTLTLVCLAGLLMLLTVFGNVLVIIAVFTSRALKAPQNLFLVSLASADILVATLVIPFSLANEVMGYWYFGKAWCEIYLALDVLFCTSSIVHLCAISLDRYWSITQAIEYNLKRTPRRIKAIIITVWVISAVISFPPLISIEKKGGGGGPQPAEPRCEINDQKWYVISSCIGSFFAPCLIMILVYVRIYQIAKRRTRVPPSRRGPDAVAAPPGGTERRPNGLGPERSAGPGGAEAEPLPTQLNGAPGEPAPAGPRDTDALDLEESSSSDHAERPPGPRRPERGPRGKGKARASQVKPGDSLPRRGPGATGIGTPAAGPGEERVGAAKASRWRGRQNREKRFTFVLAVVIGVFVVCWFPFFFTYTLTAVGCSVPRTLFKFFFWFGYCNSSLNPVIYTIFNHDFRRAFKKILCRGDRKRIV

[15] = biological target: Neuronal acetylcholine receptor subunit alpha-7 (Rattus norvegicus, UniProt Q05941); test: Binding affinity to rat nACh alpha7 receptor assessed as inhibition constant
[16] = Stability in human plasma incubated upto 60 mins; assay type: ADME, cell-free; settings: read-out: Stability
[17] = biological target: Neuronal acetylcholine receptor subunit alpha-7 (Homo sapiens, UniProt P36544); test: Binding affinity to human nACh alpha7 receptor assessed as inhibition constant
Chain of Neuronal acetylcholine receptor subunit alpha-7 (Homo sapiens, UniProt P36544) (P36544 whole entry): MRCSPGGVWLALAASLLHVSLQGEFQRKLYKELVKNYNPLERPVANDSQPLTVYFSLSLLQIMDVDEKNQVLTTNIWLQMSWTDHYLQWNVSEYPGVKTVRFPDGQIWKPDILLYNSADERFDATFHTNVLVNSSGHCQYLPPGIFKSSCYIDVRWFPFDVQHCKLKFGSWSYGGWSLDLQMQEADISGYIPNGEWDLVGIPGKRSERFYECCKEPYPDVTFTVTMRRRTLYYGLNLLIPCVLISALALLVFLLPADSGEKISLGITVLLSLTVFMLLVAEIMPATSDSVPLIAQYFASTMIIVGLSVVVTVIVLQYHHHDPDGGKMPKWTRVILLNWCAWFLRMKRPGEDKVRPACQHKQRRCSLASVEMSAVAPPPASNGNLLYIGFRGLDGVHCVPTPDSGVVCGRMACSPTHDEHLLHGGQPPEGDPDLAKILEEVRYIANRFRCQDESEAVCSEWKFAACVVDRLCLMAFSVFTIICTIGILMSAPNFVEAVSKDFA

Chain of Neuronal acetylcholine receptor subunit alpha-7 (Rattus norvegicus, UniProt Q05941) (Q05941 whole entry): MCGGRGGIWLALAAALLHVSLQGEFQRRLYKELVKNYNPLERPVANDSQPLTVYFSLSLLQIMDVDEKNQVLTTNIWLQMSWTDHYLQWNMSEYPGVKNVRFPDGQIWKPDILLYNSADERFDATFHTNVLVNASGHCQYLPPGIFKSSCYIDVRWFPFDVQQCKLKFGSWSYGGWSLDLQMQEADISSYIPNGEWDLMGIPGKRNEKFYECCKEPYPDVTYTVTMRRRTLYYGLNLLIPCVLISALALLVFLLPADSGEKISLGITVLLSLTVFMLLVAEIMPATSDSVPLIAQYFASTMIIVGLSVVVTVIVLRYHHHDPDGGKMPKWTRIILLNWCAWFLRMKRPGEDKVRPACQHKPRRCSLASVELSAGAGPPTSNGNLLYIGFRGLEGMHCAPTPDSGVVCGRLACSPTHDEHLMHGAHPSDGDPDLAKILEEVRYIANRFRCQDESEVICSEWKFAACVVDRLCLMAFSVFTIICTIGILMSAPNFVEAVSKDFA
Chain of Neuronal acetylcholine receptor; alpha4/beta2 (P17787 whole entry): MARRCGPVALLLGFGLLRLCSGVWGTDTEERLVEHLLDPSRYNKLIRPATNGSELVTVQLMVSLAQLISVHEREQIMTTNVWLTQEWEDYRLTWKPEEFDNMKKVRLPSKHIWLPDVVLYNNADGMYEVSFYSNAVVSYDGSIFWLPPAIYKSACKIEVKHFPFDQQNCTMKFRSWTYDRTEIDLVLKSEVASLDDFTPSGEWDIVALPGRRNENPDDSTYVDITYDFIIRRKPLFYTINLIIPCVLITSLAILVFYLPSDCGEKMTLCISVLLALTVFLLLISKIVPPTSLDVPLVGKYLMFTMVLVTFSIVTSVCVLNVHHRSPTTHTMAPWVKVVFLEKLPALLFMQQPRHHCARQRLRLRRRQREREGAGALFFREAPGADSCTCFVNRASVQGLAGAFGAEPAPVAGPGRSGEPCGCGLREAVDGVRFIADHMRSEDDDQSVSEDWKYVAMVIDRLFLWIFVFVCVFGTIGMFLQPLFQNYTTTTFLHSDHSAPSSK
Chain of Neuronal acetylcholine receptor; alpha4/beta2 (P43681 whole entry): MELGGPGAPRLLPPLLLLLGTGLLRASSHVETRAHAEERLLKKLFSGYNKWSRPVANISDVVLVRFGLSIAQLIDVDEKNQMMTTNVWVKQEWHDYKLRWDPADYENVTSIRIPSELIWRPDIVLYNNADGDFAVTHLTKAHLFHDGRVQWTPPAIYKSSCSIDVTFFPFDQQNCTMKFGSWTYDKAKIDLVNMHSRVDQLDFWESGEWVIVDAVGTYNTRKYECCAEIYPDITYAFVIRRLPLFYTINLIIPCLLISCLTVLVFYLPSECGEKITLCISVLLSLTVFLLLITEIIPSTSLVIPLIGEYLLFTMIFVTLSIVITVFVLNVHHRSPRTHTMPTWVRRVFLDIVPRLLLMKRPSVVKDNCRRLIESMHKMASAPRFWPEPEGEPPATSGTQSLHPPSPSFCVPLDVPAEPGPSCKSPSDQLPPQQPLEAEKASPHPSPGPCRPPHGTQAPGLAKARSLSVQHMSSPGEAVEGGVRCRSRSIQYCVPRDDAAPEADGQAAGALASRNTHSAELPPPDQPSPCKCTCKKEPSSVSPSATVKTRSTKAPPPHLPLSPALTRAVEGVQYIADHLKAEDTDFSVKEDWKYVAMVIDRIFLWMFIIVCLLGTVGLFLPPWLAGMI

SMILES	logD [1]	logP [3]	pKa [4]	other results
[18F]c1ccc(-c2nnc(N3CCN4CCC3CC4)o2)cc1	-0.82	2.34	8.44	Ki [2]: > 10000 nM
[18F]c1ccc(OC[C@H]2CCN2)cn1	-2.02	0.66	9.01	Bmax [5]: 3.7 pmol/g; Kd [6]: 0.028 nM
COC(=O)c1cncn1[C@H](C)c1ccc([18F])cc1	2.82	1.65	4.08	Drug uptake [7]: 66%; remaining at 0.5 h [8]: 8%; remaining at 10 min [9]: 13%; Drug uptake [10]: 39%; remaining at 1 h [11]: 2%
[11CH3]OCc1cccnc1N1CCN(C[C@H]2COc3ccccc3O2)CC1 [ORM-13070 C-11]	1.94	2.51	7.23	Kd [12]: 3.8 nM; Kd [13]: 23 nM; Kd [14]: 109 nM
[11CH3]c1ccc(OC(=O)N2CCN3CCC2CC3)cc1	1.89	1.95	8.19	Ki [15]: 22 nM; remaining at 1 h [16]: > 80%; Ki [17]: 14 nM

Source: ChEMBL document CHEMBL5338767, “A Molecular Toolbox of Positron Emission Tomography Tracers for General Anesthesia Mechanism Research” (J Med Chem, 2023)
